The term Ki denotes the equilibrium dissociation constant of an inhibitor or competing ligand from its target. One may read the IC50 as the concentration that gives 50% inhibition.

For assay [1], the system named is TG hydrolase activity of wild-type WAT. Put plainly: TG hydrolase activity in WAT lysates of wild-type mice. Conditions: up to, at a concentration of 40 µM. In kind it is biochemical.
Procedure: For determination of lipase activity, lysates of E. coli overexpressing recombinant strep-tagged ATGL and CGI-58 were incubated with a substrate containing radiolabeled [9,10-3H(N)]-triolein. Subsequently, FA were extracted and quantified by liquid scintillation counting. Lysates of cells expressing empty vector were set as blank. Inhibitors were solubilized in DMSO and added at the indicated concentrations. DMSO alone was used as negative control. […] Data are presented as mean +/-S.D. of triplicate determinations. […] Lipase activity of ATGL, HSL, lipoprotein lipase, and pancreatic lipase was determined using triolein as substrate. MGL activity was detected in the presence of rac-(1,3)-monooleoylglycerol as substrate. Inhibitors were solubilized in DMSO and added at the indicated concentrations. DMSO alone was used as negative control. (A) Dose-dependent inhibition of TG hydrolase activity in WAT lysates obtained from wild-type and ATGL-ko mice.
The target of the next assay is T1, recombinant ATGL (Mus musculus, UniProt Q8BJ56).
T1 construct: Strep-tag; made in house; host or cells: E. coli (XL-1), vector pASK-IBA5+; crude lysate supernatant, not purified
T1 sequence (Q8BJ56 1-486): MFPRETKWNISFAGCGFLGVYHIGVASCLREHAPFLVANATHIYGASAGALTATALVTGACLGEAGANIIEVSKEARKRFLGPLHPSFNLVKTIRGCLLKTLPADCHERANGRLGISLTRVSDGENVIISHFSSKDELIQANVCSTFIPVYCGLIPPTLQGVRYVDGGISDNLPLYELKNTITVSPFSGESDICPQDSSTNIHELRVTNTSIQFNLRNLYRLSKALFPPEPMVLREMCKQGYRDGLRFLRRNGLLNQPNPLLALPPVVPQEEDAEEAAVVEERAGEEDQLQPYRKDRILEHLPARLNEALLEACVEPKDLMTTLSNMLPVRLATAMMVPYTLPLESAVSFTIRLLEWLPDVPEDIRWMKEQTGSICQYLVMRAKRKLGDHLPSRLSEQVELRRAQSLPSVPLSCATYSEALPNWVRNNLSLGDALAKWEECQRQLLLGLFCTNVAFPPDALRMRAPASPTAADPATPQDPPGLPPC
In words: TG hydrolase activity of E. coli lysates overexpressing recombinant strep-tagged ATGL and CGI-58, radiolabeled triolein substrate. In kind it is biochemical. Here is the method: • Figure 1. Structure of compounds 1 to 3 (reference) and compound 4 (atglistatin) and effect on ATGL activity. For determination of lipase activity, lysates of E. coli overexpressing recombinant strep-tagged ATGL and CGI-58 were incubated with a substrate containing radiolabeled [9,10-3H(N)]-triolein. Subsequently, FA were extracted and quantified by liquid scintillation counting. Lysates of cells expressing empty vector were set as blank. Inhibitors were solubilized in DMSO and added at the indicated concentrations. DMSO alone was used as negative control. (A) Structure and IC50 values of compounds 1-4. (B) Dose-dependent inhibition of ATGL in the presence of compound 3 and 4. […] (C) Lineweaver-Burk plots for kinetic analysis of ATGL inhibition. Experiments were performed at varying concentrations of substrate (0.05 - 3 mM) in presence and absence of compound 4 (Atglistatin). […] Data are presented as mean +/-S.D. of triplicate determinations. Data for compound 4 are representative for at least three independent experiments. • Figure 2. Selectivity of Atglistatin. Lipase activity of ATGL, HSL, lipoprotein lipase, and pancreatic lipase was determined using triolein as substrate. MGL activity was detected in the presence of rac-(1,3)-monooleoylglycerol as substrate. Inhibitors were solubilized in DMSO and added at the indicated concentrations. DMSO alone was used as negative control. (A) Dose-dependent inhibition of TG hydrolase activity in WAT lysates obtained from wild-type and ATGL-ko mice. (B) Inhibition of TG hydrolase activity in wild-type WAT lysates by Atglistatin (40 µM) and by the HSL inhibitor Hi 76-0079 (20 µM). (C) Effect of Atglistatin on murine MGL (purified from E. coli), and murine HSL (overexpressed in COS-7 lysates) activity. (D) Effect of Atglistatin on purified bovine LPL (Sigma) and pancreatic lipase (from porcine pancreas, Sigma). Data are presented as mean +/- S.D. of triplicate determinations and are representative for at least three independent experiments (p < 0.05 **, p < 0.01; ***, p < 0.001). • Figure 3 Inhibition of lipolysis in 3T3-L1 adipocytes and WAT organ cultures. (A,B) Differentiated 3T3 cells were preincubated with the indicated concentrations of Atglistatin. Thereafter, the medium was replaced by DMEM containing 2% BSA (fatty acid free), 10 µM forskolin, in the presence or absence of inhibitors. The release of FA (A) and glycerol (B) in the media was determined using commercial kits. Basal FA and glycerol release (not shown) was barely detectable under the applied conditions. Data are presented as mean +/- SD and are representative for 2 independent experiments. (C-F) Effect of Atglistatin on WAT basal (C, D) and forskolin-stimulated (E, F) lipolysis. Adipose tissue pieces (∼15 mg, n=5 for each concentration) of wild-type mice were cultured for 8 h in DMEM containing 2 % FA-free BSA and the indicated concentrations of Atglistatin. Subsequently, the medium was replaced by identical fresh medium and samples were collected after incubation for another hour in the presence or in the absence of 10 µM forskolin. Atglistatin was solubilized in DMSO and DMSO alone was used as negative control. Data are presented as mean +/- S.D. (*, p < 0.05 **, p < 0.01; ***, p < 0.001). • Figure 4 Inhibition of lipolysis in vivo. […] At the indicated timepoints blood was taken retroorbitally and plasma parameters were measured using commercial kits. […] 8 h after gavage blood was taken retroorbitally and plasma parameters were measured using commercial kits. […]

With `CN(C)C(=O)Nc1cccc(-c2ccc(N(C)C)cc2)c1` [Atglistatin, atglistatin], the “inhibition of TG hydrolase activity of wild-type WAT” value in assay [1] is reported as “up to 78%”. On recombinant ATGL, the Ki amounted to 500 ± 200 nM. Besides, the “mechanism of ATGL inhibition” value at recombinant ATGL (increase in apparent Km, unchanged Vmax, substrate 0.05 - 3 mM) is on record as “competitive inhibitor”. In addition, the IC50 at recombinant ATGL (inhibition of the activity of recombinant ATGL) is 700 nM.
